Results as given in patent publication US20220235011A1, “PHTHALAZINONE COMPOUNDS AND USE THEREOF” (ST PHARM CO., LTD., priority 2019, published 2022).

Target: T1, Sirt6 (Homo sapiens, UniProt Q8N6T7)
T1 construct: purchased CycLex CY-1156V2
Assay: Measurement of Sirt6 Activity (CycLex Sirt6 Deacetylase Fluorometric Assay Kit)
Type: biochemical
Settings: compound at 10 μM; fluorescence relative to the group without compound treatment (positive control group)
Protocol: LC-MS (ESI, m/z)=430.1 (M+H^+) Experimental Example 1: Measurement of Sirt6 Activity Compounds having Sirt6 activity were selected using a CycLex Sirt6 Deacetylase Fluorometric Assay Kit (cat. CY-1156V2) manufactured by CycLex.
When a fluorescent-attached acetylated lysine substrate is treated with Sirt6 enzyme, Sirt6 deacetylates the acetylated lysine of the substrate and lysylendopeptidase cleaves the C-terminal peptide bond connected to the lysine, by which fluorescence is emitted. The activity of a compound is calculated by observing the intensity of fluorescence when the compound is treated along with Sirt6 enzyme. When treating the compound, the compound aids in the activity of Sirt6 enzyme, so as to result in stronger fluorescence. Therefore, by calculating the ratio of the stronger fluorescence relative to the fluorescence emitted from the group without compound treatment (i.e., positive control group), relative activity can be calculated.
Activity evaluation was performed according to the following procedure.
The compound whose activity is to be evaluated was prepared by diluting in phosphate-buffered saline (PBS) to 10 times of the desired concentration (e.g., when measuring Sirt6 assay activity at 10 μM, the compound is prepared at a concentration of 100 μM in PBS). 1 μL of a 1 Ox Sirt6 assay buffer, 0.8 μL of 50× fluoro-substrate peptide, 1 μL of nicotinamide adenine dinucleotide (NAD), 1 μL of a developer and 4.2 μL of H2O were mixed to prepare mixtures equal to the number of samples, and 8 μL was dispensed into each Black 384 well. An additional 1 μL of PBS was added to each of a “no enzyme group” and a positive control group, and 1 μL of the compound diluted in PBS was added to an activity evaluation group. Recombinant Sirt6 was 1:8 diluted in a 1×Sirt6 assay buffer, and 1 μL thereof was added to each of the positive control group and the activity evaluation group. 1 μL of the 1×Sirt6 assay buffer was added to the “no enzyme group.” After reacting at room temperature for one hour, results were measured with a fluorescence spectrometer (excitation: 490±10 nm, emission: 530±10 nm) to confirm the presence or absence of Sirt6 activity and measure the intensity of the activity.

T1 sequence (Q8N6T7 whole entry): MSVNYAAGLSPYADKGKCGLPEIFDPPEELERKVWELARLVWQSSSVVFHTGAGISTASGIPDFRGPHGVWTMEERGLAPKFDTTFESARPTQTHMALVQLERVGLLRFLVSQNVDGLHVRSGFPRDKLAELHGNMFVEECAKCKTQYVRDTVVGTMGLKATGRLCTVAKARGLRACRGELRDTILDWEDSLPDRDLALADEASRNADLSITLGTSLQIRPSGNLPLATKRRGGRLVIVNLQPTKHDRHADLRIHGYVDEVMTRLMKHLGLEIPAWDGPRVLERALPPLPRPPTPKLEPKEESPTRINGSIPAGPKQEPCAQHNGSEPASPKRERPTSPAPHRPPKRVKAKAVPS

| Compound | Sirt6 Activity (% activity, 10 μM) [% activity] |
| --- | --- |
| O=c1c2ccccc2c(-c2cccc(/C=[N+](\[O-])Cc3ccccc3)c2)nn1-c1ccc(F)cc1 [Example 44, (Z)—N-Benzyl-1-(3-(3-(4-fluorophenyl)-4-oxo-3,4-dihydrophthalazin-1-yl)phenyl)methanimine Oxide] | 142 |
| C/[N+]([O-])=C/c1ccc(-c2nn(-c3ccc(F)cc3)c(=O)c3ccccc23)s1 [Example 45, (Z)-1-(5-(3-(4-Fluorophenyl)-4-oxo-3,4-dihydrophthalazin-1-yl)thiophen-2-yl)-N-methylmethanimine Oxide] | 195 |
| CC(C)/[N+]([O-])=C/c1ccc(-c2nn(-c3ccc(F)cc3)c(=O)c3ccccc23)s1 [Example 46, (Z)-1-(5-(3-(4-Fluorophenyl)-4-oxo-3,4-dihydrophthalazin-1-yl)thiophen-2-yl)-N-isopropylmethanimine Oxide] | 154 |
| CC(C)(C)/[N+]([O-])=C/c1ccc(-c2nn(-c3ccc(F)cc3)c(=O)c3ccccc23)s1 [Example 47, (Z)—N-tert-Butyl-1-(5-(3-(4-fluorophenyl)-4-oxo-3,4-dihydrophthalazin-1-yl)thiophen-2-yl)methanimine Oxide] | 132 |
| CC(C)/[N+]([O-])=C/c1ccc(-c2nn(-c3ccc(F)cc3)c(=O)c3ccccc23)o1 [Example 48, (Z)-1-(5-(3-(4-Fluorophenyl)-4-oxo-3,4-dihydrophthalazin-1-yl)furan-2-yl)-N-isopropylmethanimine Oxide] | 107 |
| COc1ccc(-c2nn(-c3ccc(F)cc3)c(=O)c3ccccc23)cc1/C=[N+](\[O-])C(C)(C)C [Example 49, (Z)—N-tert-Butyl-1-(5-(3-(4-fluorophenyl)-4-oxo-3,4-dihydrophthalazin-1-yl)-2-methoxyphenyl)methan Imine Oxide] | 107 |
| COc1ccc(-c2nn(-c3ccc(F)cc3)c(=O)c3ccccc23)cc1/C=[N+](\[O-])Cc1ccccc1 [Example 50, (Z)—N-Benzyl-1-(5-(3-(4-fluorophenyl)-4-oxo-3,4-dihydrophthalazin-1-yl)-2-methoxyphenyl)methanimine Oxide] | 105 |
| C/[N+]([O-])=C/c1cc(-c2nn(-c3ccc(F)cc3)c(=O)c3ccccc23)ccc1F [Example 51, (Z)-1-(2-Fluoro-5-(3-(4-fluorophenyl)-4-oxo-3,4-dihydrophthalazin-1-yl)phenyl)-N-methylmethanimine Oxide] | 139 |
| CC(C)/[N+]([O-])=C/c1cc(-c2nn(-c3ccc(F)cc3)c(=O)c3ccccc23)ccc1F [Example 52, (Z)-1-(2-Fluoro-5-(3-(4-fluorophenyl)-4-oxo-3,4-dihydrophthalazin-1-yl)phenyl)-N-isopropylmethanimine Oxide] | 172 |
| CC(C)(C)/[N+]([O-])=C/c1cc(-c2nn(-c3ccc(F)cc3)c(=O)c3ccccc23)ccc1F [Example 53, (Z)—N-tert-Butyl-1-(2-fluoro-5-(3-(4-fluorophenyl)-4-oxo-3,4-dihydrophthalazin-1-yl)phenyl) Methanimine Oxide] | 172 |
| O=c1c2ccccc2c(-c2ccc(F)c(/C=[N+](\[O-])Cc3ccccc3)c2)nn1-c1ccc(F)cc1 [Example 54, (Z)—N-Benzyl-1-(2-fluoro-5-(3-(4-fluorophenyl)-4-oxo-3,4-dihydrophthalazin-1-yl)phenyl) Methanimine Oxide] | 161 |
| C/[N+]([O-])=C/c1ccc(F)c(-c2nn(-c3ccc(F)cc3)c(=O)c3ccccc23)c1 [Example 55, (Z)-1-(4-Fluoro-3-(3-(4-fluorophenyl)-4-oxo-3,4-dihydrophthalazin-1-yl)phenyl)-N-methylmethanimine Oxide] | 151 |
| CC(C)/[N+]([O-])=C/c1ccc(F)c(-c2nn(-c3ccc(F)cc3)c(=O)c3ccccc23)c1 [Example 56, (Z)-1-(4-Fluoro-3-(3-(4-fluorophenyl)-4-oxo-3,4-dihydrophthalazin-1-yl)phenyl)-N-isopropylmethanimine Oxide] | 115 |
| CC(C)(C)/[N+]([O-])=C/c1ccc(F)c(-c2nn(-c3ccc(F)cc3)c(=O)c3ccccc23)c1 [Example 57, (Z)—N-tert-Butyl-1-(4-fluoro-3-(3-(4-fluorophenyl)-4-oxo-3,4-dihydrophthalazin-1-yl)phenyl) Methanimine Oxide] | 149 |
| O=c1c2ccccc2c(-c2cc(/C=[N+](\[O-])Cc3ccccc3)ccc2F)nn1-c1ccc(F)cc1 [Example 58, (Z)—N-Benzyl-1-(4-fluoro-3-(3-(4-fluorophenyl)-4-oxo-3,4-dihydrophthalazin-1-yl)phenyl) Methanimine Oxide] | 131 |
| O=c1c2ccccc2c(-c2ccc(Cl)c([N+](=O)[O-])c2)nn1-c1ccc(F)cc1 [Example 59, 4-(4-Chloro-3-nitrophenyl)-2-(4-fluorophenyl)phthalazin-1(2H)-one] | 109 |
| Nc1cccc(-c2nn(-c3ccc(F)cc3)c(=O)c3ccccc23)c1 [Example 60, 4-(3-Aminophenyl)-2-(4-fluorophenyl) phthalazin-1(2H)-one] | 176 |
| CCS(=O)(=O)Nc1cccc(-c2nn(Cc3ccccc3)c(=O)c3ccccc23)c1 [Example 61, N-(3-(3-Benzyl-4-oxo-3,4-dihydrophthalazin-1-yl)phenyl)ethanesulfonamide] | 104 |
| CCS(=O)(=O)Nc1cccc(-c2nn(CCc3ccccc3)c(=O)c3ccccc23)c1 [Example 62, N-(3-(4-Oxo-3-phenethyl-3,4-dihydrophthalazin-1-yl)phenyl)ethanesulfonamide] | 111 |
| CCS(=O)(=O)Nc1cccc(-c2nn(Cc3ccc(F)cc3)c(=O)c3ccccc23)c1 [Example 63, N-(3-(3-(4-Fluorobenzyl)-4-oxo-3,4-dihydrophthalazin-1-yl)phenyl)ethanesulfonamide] | 103 |
| CCS(=O)(=O)Nc1cccc(-c2nn(-c3ccc(-c4ccccc4)cc3)c(=O)c3ccccc23)c1 [Example 64, N-(3-(3-([1,1′-Biphenyl]-4-yl)-4-oxo-3,4-dihydrophthalazin-1-yl)phenyl)ethane Sulfonamide] | 106 |
| CCS(=O)(=O)N(C)c1cccc(-c2nn(-c3ccc(-c4ccccc4)cc3)c(=O)c3ccccc23)c1 [Example 65, N-(3-(3-([1,1′-Biphenyl]-4-yl)-4-oxo-3,4-dihydrophthalazin-1-yl)phenyl)-N-methylethanesulfonamide] | 96 |
| COC(=O)c1cccc(-c2nn(-c3ccc(F)cc3)c(=O)c3ccccc23)c1 [Example 66, Methyl 3-(3-(4-fluorophenyl)-4-oxo-3,4-dihydrophthalazin-1-yl)benzoate] | 103 |
| CC(C)S(=O)(=O)Nc1cccc(-c2nn(-c3ccc(F)cc3)c(=O)c3ccccc23)c1 [Example 67, N-(3-(3-(4-Fluorophenyl)-4-oxo-3,4-dihydrophthalazin-1-yl)phenyl)propan-2-sulfonamide] | 166 |
| CCCS(=O)(=O)Nc1cccc(-c2nn(-c3ccc(F)cc3)c(=O)c3ccccc23)c1 [Example 68, N-(3-(3-(4-Fluorophenyl)-4-oxo-3,4-dihydrophthalazin-1-yl)phenyl)propan-1-sulfonamide] | 160 |
| CN(c1cccc(-c2nn(-c3ccc(F)cc3)c(=O)c3ccccc23)c1)S(C)(=O)=O [Example 69, N-(3-(3-(4-Fluorophenyl)-4-oxo-3,4-dihydrophthalazin-1-yl)phenyl)-N-methylmethane Sulfonamide] | 209 |
| CCS(=O)(=O)N(C)c1cccc(-c2nn(-c3ccc(F)cc3)c(=O)c3ccccc23)c1 [Example 70, N-(3-(3-(4-Fluorophenyl)-4-oxo-3,4-dihydrophthalazin-1-yl)phenyl)-N-methylethane Sulfonamide] | 135 |
| O=c1c2ccccc2c(-c2cccc(NS(=O)(=O)C3CC3)c2)nn1-c1ccc(F)cc1 [Example 71, N-(3-(3-(4-Fluorophenyl)-4-oxo-3,4-dihydrophthalazin-1-yl)phenyl)cyclopropane Sulfonamide] | 150 |
| CCCS(=O)(=O)N(C)c1cccc(-c2nn(-c3ccc(F)cc3)c(=O)c3ccccc23)c1 [Example 72, N-(3-(3-(4-Fluorophenyl)-4-oxo-3,4-dihydrophthalazin-1-yl)phenyl)-N-methylpropan-1-sulfonamide] | 115 |
